# Data published in ChEMBL document CHEMBL2074333, “BPR0L075, a novel synthetic indole compound with antimitotic activity in human cancer cells, exerts effective antitumoral activity in vivo” (Cancer Res, 2004).
# Key:
# [1] = target: T1, ATP-dependent translocase ABCB1 (Homo sapiens, UniProt P08183); experiment: TP_TRANSPORTER: drug resistance in KB-TAX50 cells; assay type: functional, cell-based
# [2] = target: T1, ATP-dependent translocase ABCB1; experiment: TP_TRANSPORTER: drug resistance in KB-VIN10 cells; assay type: functional, cell-based
# T1 sequence (P08183 whole entry): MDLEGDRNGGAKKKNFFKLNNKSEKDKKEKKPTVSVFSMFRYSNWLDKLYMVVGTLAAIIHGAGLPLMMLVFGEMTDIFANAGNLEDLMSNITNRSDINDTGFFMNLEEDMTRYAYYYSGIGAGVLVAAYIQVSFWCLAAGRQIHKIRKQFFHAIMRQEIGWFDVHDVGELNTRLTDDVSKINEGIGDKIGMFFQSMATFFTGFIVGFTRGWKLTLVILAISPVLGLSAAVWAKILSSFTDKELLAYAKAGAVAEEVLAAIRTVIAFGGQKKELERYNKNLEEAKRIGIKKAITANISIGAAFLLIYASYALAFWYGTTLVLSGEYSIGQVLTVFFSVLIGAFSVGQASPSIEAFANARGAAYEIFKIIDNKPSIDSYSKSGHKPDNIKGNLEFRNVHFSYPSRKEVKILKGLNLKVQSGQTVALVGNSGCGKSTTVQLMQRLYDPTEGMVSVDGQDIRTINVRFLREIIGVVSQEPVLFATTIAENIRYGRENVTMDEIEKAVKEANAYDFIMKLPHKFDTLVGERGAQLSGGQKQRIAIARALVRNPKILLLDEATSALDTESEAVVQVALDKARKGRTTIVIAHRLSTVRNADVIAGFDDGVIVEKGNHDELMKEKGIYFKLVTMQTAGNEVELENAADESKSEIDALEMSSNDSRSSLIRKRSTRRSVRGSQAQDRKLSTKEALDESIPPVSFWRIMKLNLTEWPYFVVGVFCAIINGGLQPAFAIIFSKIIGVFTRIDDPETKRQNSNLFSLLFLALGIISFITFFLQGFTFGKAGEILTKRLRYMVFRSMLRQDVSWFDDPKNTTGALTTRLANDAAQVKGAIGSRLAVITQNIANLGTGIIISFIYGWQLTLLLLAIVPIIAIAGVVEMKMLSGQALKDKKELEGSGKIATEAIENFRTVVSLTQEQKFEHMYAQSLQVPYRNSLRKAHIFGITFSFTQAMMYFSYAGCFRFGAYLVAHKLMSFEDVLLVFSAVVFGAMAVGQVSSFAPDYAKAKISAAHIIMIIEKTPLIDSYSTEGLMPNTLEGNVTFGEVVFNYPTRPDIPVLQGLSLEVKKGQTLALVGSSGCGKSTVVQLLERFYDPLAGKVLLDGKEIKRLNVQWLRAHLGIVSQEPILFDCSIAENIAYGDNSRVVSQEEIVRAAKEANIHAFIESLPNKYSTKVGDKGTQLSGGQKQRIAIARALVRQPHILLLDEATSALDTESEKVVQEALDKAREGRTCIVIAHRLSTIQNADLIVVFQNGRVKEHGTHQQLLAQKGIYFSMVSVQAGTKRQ
SMILES,Activity [1],Activity [2]
COc1ccc2c(C(=O)c3cc(OC)c(OC)c(OC)c3)c[nH]c2c1,is not a substrate [-],is not a substrate [-]
COc1cc2c(c(OC)c1OC)-c1ccc(OC)c(=O)cc1[C@@H](NC(C)=O)CC2 [COLCHICINE],substrate [+],substrate [+]
CC(=O)O[C@H]1C(=O)[C@@]2(C)[C@H]([C@H](OC(=O)c3ccccc3)[C@]3(O)C[C@H](OC(=O)[C@H](O)[C@@H](NC(=O)c4ccccc4)c4ccccc4)C(C)=C1C3(C)C)[C@]1(OC(C)=O)CO[C@@H]1C[C@@H]2O [PACLITAXEL],substrate [+],substrate [+]
CC[C@]1(O)C[C@H]2CN(CCc3c([nH]c4ccccc34)[C@@](C(=O)OC)(c3cc4c(cc3OC)N(C=O)[C@H]3[C@@](O)(C(=O)OC)[C@H](OC(C)=O)[C@]5(CC)C=CCN6CC[C@]43[C@@H]65)C2)C1 [VINCRISTINE],substrate [+],substrate [+]
